“And” between values parts separate entries of the source, which are not always exact repeats. Equal values may be shown once.
Tests used:
Type in all cases: physicochemical
[1] = Test 2: crystal stability by coloration, absorbance (390 nm) of crystals dissolved in dimethylformamide; conditions: for Absorbance of solution of crystals just after preparation / Absorbance of solution of crystals after stored at 60° C. for 15 days: 1 g crystals in 10 mL dimethylformamide; for Change in Absorbance: after 60° C. for 15 days minus just after preparation
Protocol: In the method according to EXAMPLE 3, the amount of ethanol added to the mixed solution in which the wet crystals of the solvate of ethanol-water of lansoprazole are suspended was changed, and the stability of thus obtained crystals was compared.
The crystals obtained from each of mixed solution systems shown in Table 2 below were each dissolved in dimethylformamide just after the preparation and after stored at 60° C. for 15 days, and the absorbance (390 nm) of thus obtained solutions of crystals was measured. The degree of coloration was compared as an indicator of the crystal stability.
The absorbance of the solution prepared by dissolving 1 g of crystals into 10 mL of dimethylformamide was measured with the use of a spectral photometer (Jasco No. 0214332).
In addition, the pH of each mixed solution in which crystals are suspended was adjusted to about 9 with an aqueous ammonia solution.

[2] = Test 1: storage stability of lansoprazole crystals, content by HPLC; conditions: for Residual ratio after stored for 6 months at 40° C.: [(Content after stored for 6 months at 40° C.)/(Initial Content)]×100; for Initial Content / Content after stored for 6 months at 40° C.: content of lansoprazole in crystals, wt %, HPLC; for Initial Content: before storage
From the text: The stability of the crystals of the solvate of lansoprazole (hereinafter, referred to as lansoprazole (1)) obtained by vacuum drying the wet crystals of the solvate of ethanol-water of lansoprazole obtained according to the method in EXAMPLE 2, was compared to the stability of the white crystals of lansoprazole (hereinafter, referred to as lansoprazole (2)) obtained according to the method in EXAMPLE 3.
Herein, the “content” in Table 1 refers to the content of lansoprazole in lansoprazole crystals expressed in wt %, and was measured by HPLC technique (analyzed under each of following conditions: for (1), Column: NOVA PAK, C18, 3.9×150 mm, Temperature: constant temperature of around 25° C., Mobile phase: solution prepared by adjusting the pH of methanol:water:triethylamine (weight ratio=60:40:1) with phosphoric acid to 7.0, Flow rate: 0.5 ml/min, Detector: UV 285 nm, and for (2), Column: CAPCELL PAC, C18, SG120, 4.6×250 mm, Temperature: constant temperature of around 25° C., Mobile phase: solution prepared by adjusting the pH of acetonitrile:water:triethylamine (weight ratio=40:60:1) with phosphoric acid to 7.0, Flow rate: 1 ml/min, Detector: UV 285 nm). The “residual ratio after stored for 6 months at 40° C.” was calculated by [(Content after stored for 6 months at 40° C.)/(Initial Content)]×100 (%).

[3] = Stability of crystals obtained in Example 2 (statement only)

| Absorbance of solution of crystals just after preparation [1] | Absorbance of solution of crystals after stored at 60° C. for 15 days [1] | Change in Absorbance [1] | Residual ratio after stored for 6 months at 40° C. [2] | Initial Content [2] | Content after stored for 6 months at 40° C. ([2]; 6 months at 40° C.) | SMILES | other results |
| --- | --- | --- | --- | --- | --- | --- | --- |
| 0.056 | 0.964 | 0.908 |  |  |  | Cc1c(OCC(F)(F)F)ccnc1C[S+]([O-])c1nc2ccccc2[nH]1 (racemic) [About 40:1, (+/−)-2-(((3-methyl-4-(2,2,2-trifluoroethoxy)-2-pyridyl)methyl)sulfinyl)benzimidazole] |  |
| 0.046 | 1.703 | 1.657 |  |  |  | Cc1c(OCC(F)(F)F)ccnc1C[S+]([O-])c1nc2ccccc2[nH]1 (racemic) [Ethanol non-added, (+/−)-2-(((3-methyl-4-(2,2,2-trifluoroethoxy)-2-pyridyl)methyl)sulfinyl)benzimidazole] |  |
| 0.054 | 1.135 | 1.081 |  |  |  | Cc1c(OCC(F)(F)F)ccnc1C[S+]([O-])c1nc2ccccc2[nH]1 (racemic) [About 160:1, (+/−)-2-(((3-methyl-4-(2,2,2-trifluoroethoxy)-2-pyridyl)methyl)sulfinyl)benzimidazole] |  |
|  |  |  | 91.3% and 84.7% and 86.8% | 99.2% and 99.3% and 99.1% | 90.6% and 84.1% and 86.0% | Cc1c(OCC(F)(F)F)ccnc1C[S+]([O-])c1nc2ccccc2[nH]1 (racemic) [lansoprazole (1), (+/−)-2-(((3-methyl-4-(2,2,2-trifluoroethoxy)-2-pyridyl)methyl)sulfinyl)benzimidazole] |  |
|  |  |  |  |  |  | Cc1c(OCC(F)(F)F)ccnc1C[S+]([O-])c1nc2ccccc2[nH]1 (racemic) [lansoprazole I type crystal, (+/−)-2-(((3-methyl-4-(2,2,2-trifluoroethoxy)-2-pyridyl)methyl)sulfinyl)benzimidazole] | stability of obtained crystals [3]: stable |
|  |  |  | ~100% | 99.7% and 99.8% | 99.6% and 99.8% | Cc1c(OCC(F)(F)F)ccnc1C[S+]([O-])c1nc2ccccc2[nH]1 (racemic) [lansoprazole (2), (+/−)-2-(((3-methyl-4-(2,2,2-trifluoroethoxy)-2-pyridyl)methyl)sulfinyl)benzimidazole] | stability of crystal compared to lansoprazole (1) ([2]; 6 months at 40° C.): more excellent stability; Residual ratio after stored for 6 months at 40° C. ([2]; listed as (2)): 99.9% and 100.0% |

Reference: US20080262235A1, “Method and Apparatus for Producing Oxidized Compound” (priority 2005, published 2008)
